Test results reported in US20170121344A1 (Siga Technologies, Inc., priority 2009, published 2017).
Where two headings read alike, the source gives them in different places.

Tested on: Dengue-2 (Strain New Guinea C)
Assay: Viral yield assay against Dengue-2 in Vero cells
Type: cell-based, Dengue virus
Conditions: Dengue virus
Method in brief: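 Virus yield, titered on Vero cells from cultures harvested at 48 h post infection, gave the EC50. Cultures were infected at MOI 0.1 with dengue-2 and treated with compound or DMSO at 37° C. DENV-1 and DENV-4 were determined similarly.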

[1] = DENV2, viral yield assay, Vero cells, MOI 0.1, 48 hours post infection, read-out: Activity (EC50 in μM) DENV-2
[2] = Vero cells, MOI 0.1, harvested 48 hours post infection, read-out: Activity (EC50 class) against Dengue-2 Virus in Vero cells
[3] = Vero, 48 h, read-out: Activity (EC50 class) against Dengue-2 Virus in Vero cells

SMILES	EC50 [1] [µM]	EC50 [2] [µM]	other results
Nc1c(C(=O)Nc2ccc(Br)cc2)sc2nc(-c3ccc4c(c3)OCO4)ccc12 [Compound 474, 3-amino-6-(1,3-benzodioxol-5-yl)-N-(4-bromophenyl)thieno[2,3-b]pyridine-2-carboxamide]	< 5	–	–
Nc1c(C(=O)Nc2ccccc2)sc2nc3c(cc12)CCCCC3 [Compound 217, 3-Amino-6,7,8,9-tetrahydro-5H-1-thia-10-aza-cyclohepta[f]indene-2-carboxylic acid phenylamide]	–	> 25	–
Cc1ccccc1NC(=O)c1sc2nc3c(c(-c4cccs4)c2c1N)CN(C)CC3 [Compound 27, 3-Amino-6-methyl-4-thiophen-2-yl-5,6,7,8-tetrahydro-thieno[2,3-b][1,6]naphthyridine-2-carboxylic acid o-tolylamide]	–	< 5	–
COc1ccc(Cl)cc1NC(=O)c1sc2nc(-c3cccs3)ccc2c1N [Compound 460, 3-amino-N-(5-chloro-2-methoxy-phenyl)-6-(2-thienyl)thieno[2,3-b]pyridine-2-carboxamide]	< 5	–	–
Nc1c(C(=O)Nc2cccc(C(F)(F)F)c2)sc2nc3c(cc12)CCCCCC3 [Compound 370, 3-amino-N-(3-(trifluoromethyl)phenyl)-5,6,7,8,9,10-hexahydrocycloocta[b] thieno[3,2-e]pyridine-2-carboxamide]	< 5	–	–
Nc1c(C(=O)Nc2ccccc2OC(F)(F)F)sc2nc(-c3ccncc3)ccc12 [Compound 487, 3-amino-6-(4-pyridyl)-N-[2-(trifluoromethoxy)phenyl]thieno[2,3-b] pyridine-2-carboxamide]	< 5	–	–
Cc1nc2sc(C(=O)Nc3ccc(Br)cc3)c(N)c2c(C)c1C [Compound 157, 3-Amino-4,5,6-trimethyl-thieno[2,3-b]pyridine-2-carboxylic acid (4-bromo-phenyl)-amide]	–	–	EC50 [3]: > 25 µM
COc1cccc(-c2ccc3c(N)c(C(=O)Nc4ccc5c(c4)OCCO5)sc3n2)c1 [Compound 499, 3-amino-N-(2,3-dihydor-1,4-benzodioxin-6-yl)-6-(3-methoxyphenyl)thieno[2,3-b] pyridine-2-carboxamide]	< 5	–	–
COc1ccc(-c2ccc3c(N)c(C(=O)Nc4cc(C)ccc4C)sc3n2)cc1OC [Compound 524, 3-amino-6-(3,4-dimethoxyphenyl)-N-(2,5-dimethylphenyl)thieno[2,3-b]pyridine-2-carboxamide]	< 5	–	–
COc1cccc(-c2ccc3c(N)c(C(=O)Nc4ccccc4OC)sc3n2)c1 [Compound 504, 3-amino-N-(2-methoxyphenyl)-6-(3-methoxyphenyl)thieno[2,3-b]pyridine-2-carboxamide]	< 5	–	–
Nc1c(C(=O)N(c2ccccc2)c2ccccc2)sc2nc3c(cc12)CCC3 [Compound 207, 3-Amino-6,7-dihydro-5H-cyclopenta[b]thieno[3,2-e]pyridine-2-carboxylic acid diphenylamide]	–	> 25	–
CC(=O)c1cnc2sc(C(=O)Nc3cccc(F)c3)c(C)c2c1 [Compound 391, 5-acetyl-N-(3-fluorophenyl)-3-methyl-thieno[2,3-b]pyridine-2-carboxamide]	< 5	–	–
CN1CCc2nc3sc(C(=O)Nc4cc(Cl)ccc4Cl)c(N)c3cc2C1 [Compound 44, 3-Amino-6-methyl-5,6,7,8-tetrahydro-thieno[2,3-b][1,6]naphthyridine-2-carboxylic acid (2,5-dichloro-phenyl)-amide]	–	< 5	–
Cc1cc(C)c2c(N)c(C(=O)NCc3ccco3)sc2n1 [Compound 258, 3-Amino-4,6-dimethyl-thieno[2,3-b]pyridine-2-carboxylic acid (furan-2-ylmethyl)-amide]	–	–	EC50 [3]: > 25 µM
C=CCc1c(C)nc2sc(C(=O)Nc3cccc(Cl)c3)c(N)c2c1C [Compound 96, 5-Allyl-3-amino-4,6-dimethyl-thieno[2,3-b]pyridine-2-carboxylic acid (3-chloro-phenyl)-amide]	–	5 to 25	–
Cc1cc(C(F)(F)F)c2c(N)c(C(=O)Nc3ccc(I)cc3C)sc2n1 [Compound 123, 3-Amino-6-methyl-4-trifluoromethyl-thieno[2,3-b]pyridine-2-carboxylic acid (4-iodo-2-methyl-phenyl)-amide]	–	> 25	–
Nc1c(C(=O)Nc2ccccc2F)sc2nc3c(cc12)CCCCC3 [Compound 79, 3-Amino-6,7,8,9-tetrahydro-5H-1-thia-10-aza-cyclohepta[f]indene-2-carboxylic acid (2-fluoro-phenyl)-amide]	–	–	EC50 [3]: 5 to 25 µM
Nc1c(C(=O)Nc2ccc(F)c(Cl)c2)sc2nc(-c3ccc4c(c3)OCO4)ccc12 [Compound 595, 3-amino-6-(1,3-benzodioxol-5-yl)-N-(3-chloro-4-fluoro-phenyl)thieno[2,3-b] pyridine-2-carboxamide]	< 5	–	–
COc1ccc(-c2c(C#N)c(N)nc3sc(C(=O)Nc4ccc(F)cc4)c(N)c23)cc1OC [Compound 84, 3,6-Diamino-5-cyano-4-(3,4-dimethoxy-phenyl)-thieno[2,3-b]pyridine-2-carboxylic acid (4-fluoro-phenyl)-amide]	–	5 to 25	–
Cn1cnc2c(sc3nc4c(cc32)COC(C)(C)C4)c1=O [Compound 201, 2,8,8-Trimethyl-8,9-dihydro-2H,6H-7-oxa-11-thia-2,4,10-triaza-benzo[b]fluoren-1-one]	–	–	EC50 [3]: > 25 µM
CC1(C)Cc2c(c(N3CCOCC3)nc3sc4c(=O)n(-c5ccccc5)cnc4c23)CO1 [Compound 233, 2,2-Dimethyl-5-morpholin-4-yl-9-phenyl-1,4-dihydro-2H,9H-3-oxa-7-thia-6,9,11-triaza-benzo[c]fluoren-8-one]	–	> 25	–
NC(=O)c1sc2nccc(Nc3ccccc3)c2c1N [Compound 158, 3-Amino-4-phenylamino-thieno[2,3-b]pyridine-2-carboxylic acid amide]	–	> 25	–
CC(C)N1CCc2nc3sc(C(=O)Nc4ccc(C(F)(F)F)cc4)c(N)c3cc2C1 [Compound 60, 3-Amino-6-isopropyl-5,6,7,8-tetrahydro-thieno[2,3-b][1,6]naphthyridine-2-carboxylic acid (4-trifluoromethyl-phenyl)-amide]	–	< 5	–
NC(=O)c1sc2nc(-c3ccccc3)ccc2c1N [Compound 161, 3-Amino-6-phenyl-thieno[2,3-b]pyridine-2-carboxylic acid amide]	–	> 25	–
N#Cc1cc2c(N)c(C(=O)N(c3ccccc3)c3ccccc3)sc2nc1N [Compound 69, 3,6-Diamino-5-cyano-thieno[2,3-b]pyridine-2-carboxylic acid diphenylamide]	–	5 to 25	–
CC(=O)Nc1ccc(NC(=O)c2sc3nc4c(cc3c2N)CCCC4)cc1 [Compound 204, 3-Amino-5,6,7,8-tetrahydro-thieno[2,3-b]quinoline-2-carboxylic acid (4-acetylamino-phenyl)-amide]	–	> 25	–
Cc1ccc(NC(=O)c2sc3nc4c(cc3c2N)CN(C)CC4)c(F)c1 [Compound 104, 3-Amino-6-methyl-5,6,7,8-tetrahydro-thieno[2,3-b][1,6]naphthyridine-2-carboxylic acid (2-fluoro-4-methyl-phenyl)-amide]	–	5 to 25	–
COCc1cc(C)nc2sc(C(=O)N3CCc4ccccc43)c(N)c12 [Compound 249, (3-Amino-4-methoxymethyl-6-methyl-thieno[2,3-b]pyridin-2-yl)-(2,3-dihydro-indol-1-yl)-methanone]	–	> 25	–
